According to US8143255B2, “Heteroalkyl linked pyrimidine derivatives” (S*BIO Pte Ltd., priority 2005, dated 2012):

Columns and labels:
CDK2/CyclinA = biological target: T1, CDK2/CyclinA (Homo sapiens, UniProt P24941); assay: In vitro kinase activity assay (PKLight), CDK2/Cyclin A; format: biochemical; settings: recombinant CDK2/Cyclin A, RbING substrate, 0.5 μM ATP, 2 hr
T1 construct: purchased Invitrogen PV3267
Method: (§1) All assays were carried out in 384-well white microtiter plates using the PKLight assay system from Cambrex (East rutherford, N.J.). This assay platform is essentially a luminometdc assay for the detection of ATP in the reaction using a luciferase-coupled reaction. For CDK2/Cyclin A assay, the reaction mixture consisted of the following components in 25 μL assay buffer (50 mM Hepes pH 7.5, 10 mM MgCl2, 5 mM MnCl2, 5 mM BGP, 1 mM DTT, 0.1 mM sodium orthovanadate), 1.4 μg/mL of CDK2/Cyclin A complex, 0.5 μM of RbING substrate (Invitrogen, Cat # PV2939) and 0.5 μM of ATP. The compounds were tested at 8 concentrations prepared from 4-fold serial dilution starting at 10 μM. The reaction was incubated at room temperature for 2 hr. 13 μL of PKLight ATP detection reagent was added and the reaction was incubated for 10 min. Luminescence signals were detected on a multi-label plate reader (Victor^2 V 1420, Perkin-Elmer). The other kinase assays were identical except for the following differences in reagents. For FLT3 assays, the reaction contained 2.0 μg/mL FLT3 enzyme, 5 μM of poly(Glu,Tyr) substrate (Sigma, Cat # P0275) and 4 μM of ATP. For JAK2 assays, the reaction contained 0.6 μg/mL of JAK2 enzyme, 2 μM of poly(Glu,Ala,Tyr) substrate (Sigma, Cat # P3899) and 0.2 μM of ATP. […] The analytical software, Prism 4.0 (GraphPad Software Pte Ltd) was used to generate IC50 values from the data.

FLT3 = biological target: T2, FLT3 (Homo sapiens, UniProt P36888); assay: In vitro kinase activity assay (PKLight), FLT3; format: biochemical; settings: recombinant FLT3, poly(Glu,Tyr) substrate, 4 μM ATP
T2 construct: purchased Invitrogen PV3182
T2 sequence (P36888 27-993): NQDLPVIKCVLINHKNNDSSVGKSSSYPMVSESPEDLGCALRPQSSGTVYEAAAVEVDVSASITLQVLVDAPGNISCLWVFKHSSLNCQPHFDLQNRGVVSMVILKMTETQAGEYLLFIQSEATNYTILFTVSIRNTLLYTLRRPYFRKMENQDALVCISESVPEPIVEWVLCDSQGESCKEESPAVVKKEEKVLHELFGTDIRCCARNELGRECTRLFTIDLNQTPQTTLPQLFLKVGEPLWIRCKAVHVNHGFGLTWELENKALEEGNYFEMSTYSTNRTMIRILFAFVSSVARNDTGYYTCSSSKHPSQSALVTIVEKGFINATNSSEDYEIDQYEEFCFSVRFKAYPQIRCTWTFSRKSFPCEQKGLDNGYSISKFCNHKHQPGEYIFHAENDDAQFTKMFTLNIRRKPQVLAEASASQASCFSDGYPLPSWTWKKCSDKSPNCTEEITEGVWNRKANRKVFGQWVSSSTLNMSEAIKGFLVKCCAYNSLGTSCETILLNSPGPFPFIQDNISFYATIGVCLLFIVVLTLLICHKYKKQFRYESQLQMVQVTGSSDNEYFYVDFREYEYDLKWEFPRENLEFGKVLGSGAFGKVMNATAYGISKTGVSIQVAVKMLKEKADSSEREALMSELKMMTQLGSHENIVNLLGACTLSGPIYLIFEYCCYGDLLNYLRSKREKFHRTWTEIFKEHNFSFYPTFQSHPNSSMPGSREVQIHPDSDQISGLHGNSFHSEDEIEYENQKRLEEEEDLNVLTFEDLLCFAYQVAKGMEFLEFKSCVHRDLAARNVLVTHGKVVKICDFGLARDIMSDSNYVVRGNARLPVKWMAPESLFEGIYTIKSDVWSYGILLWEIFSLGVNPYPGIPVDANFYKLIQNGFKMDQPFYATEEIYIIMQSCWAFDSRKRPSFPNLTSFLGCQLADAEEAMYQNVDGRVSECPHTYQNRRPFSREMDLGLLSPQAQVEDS
Method: The recombinant enzymes (CDK2/CyclinA, FLT3, JAK2 and JAK2 V617F) were purchased from Invitrogen (Cat # PV3267, 3182, 4210 and 4347 respectively). All assays were carried out in 384-well white microtiter plates using the PKLight assay system from Cambrex (East rutherford, N.J.). This assay platform is essentially a luminometdc assay for the detection of ATP in the reaction using a luciferase-coupled reaction. For CDK2/Cyclin A assay, the reaction mixture consisted of the following components in 25 μL assay buffer (50 mM Hepes pH 7.5, 10 mM MgCl2, 5 mM MnCl2, 5 mM BGP, 1 mM DTT, 0.1 mM sodium orthovanadate), 1.4 μg/mL of CDK2/Cyclin A complex, 0.5 μM of RbING substrate (Invitrogen, Cat # PV2939) and 0.5 μM of ATP. The compounds were tested at 8 concentrations prepared from 4-fold serial dilution starting at 10 μM. The reaction was incubated at room temperature for 2 hr. 13 μL of PKLight ATP detection reagent was added and the reaction was incubated for 10 min. Luminescence signals were detected on a multi-label plate reader (Victor^2 V 1420, Perkin-Elmer). The other kinase assays were identical except for the following differences in reagents. For FLT3 assays, the reaction contained 2.0 μg/mL FLT3 enzyme, 5 μM of poly(Glu,Tyr) substrate (Sigma, Cat # P0275) and 4 μM of ATP. For JAK2 assays, the reaction contained 0.6 μg/mL of JAK2 enzyme, 2 μM of poly(Glu,Ala,Tyr) substrate (Sigma, Cat # P3899) and 0.2 μM of ATP. For JAK2 V617F mutant assays, the reaction contained 8.0 μg/mL of JAK2 mutant enzyme, 2 μM of poly(Glu,Ala,Tyr) substrate (Sigma, Cat # P3899) and 0.2 μM of ATP. The analytical software, Prism 4.0 (GraphPad Software Pte Ltd) was used to generate IC50 values from the data. […] IC50 values are shown below in Table 3.

JAK2 = biological target: T3, JAK2 (Homo sapiens, UniProt O60674); assay: In vitro kinase activity assay (PKLight), JAK2; format: biochemical; settings: recombinant JAK2, poly(Glu,Ala,Tyr) substrate, 0.2 μM ATP
T3 construct: purchased Invitrogen PV4210
Method: as §1

[1] = test system: HL60 (acute myeloid leukemia cell line); assay: Cell-based proliferation assay, HL60; settings: Homo sapiens, HL-60; HL60 cells, 96 h treatment
Method: (§2) Human cancer cell lines HL60 (acute myeloid leukemia cell line), Colo205 (colon adenocarcinoma cell line), HEL92.1.7 (erythroleukemia cell line), MV4-11 (acute myeloid leukemia cell line) and DU145 (metastatic prostate cancer cell line) were obtained from ATCC. They were cultivated in the media according to the ATCC work instructions. Colo205 and DU145 cells were seeded in 96-wells plate 5000 cells per cell and 1000 cells per well respectively. HEL92.1.7 and MV4-11 cells were seeded at 6000 cells per well while HL60 cells were seeded at 8000 cells per well in 96 well plate. The plates were incubated at 37° C., 5% CO2, for 24 h. Cells were treated with compounds at various concentrations for 96 h. Cell growth was then monitored using Celltiter96 Aqueous One Solution Cell Proliferation Assay from Promega (Madison Wis.). Dose response curves were plotted to determine GI50 values for the compounds using XL-fit (ID Business Solution, Emeryville, Calif.).

[2] = test system: Colo205 (colon adenocarcinoma cell line); assay: Cell-based proliferation assay, Colo205; settings: Homo sapiens, COLO 205; Colo205 cells, 96 h treatment
Method: as §2

[3] = test system: HEL92.1.7 (erythroleukemia cell line); assay: Cell-based proliferation assay, HEL92.1.7; settings: Homo sapiens, HEL 92.1.7; HEL92.1.7 cells, 96 h treatment
Method: as §2

[4] = test system: MV4-11 (acute myeloid leukemia cell line); assay: Cell-based proliferation assay, MV4-11; settings: Homo sapiens; MV4-11 cells, 96 h treatment
Method: as §2

[5] = test system: DU145 (metastatic prostate cancer cell line); assay: Cell-based proliferation assay, DU145; settings: Homo sapiens, DU-145; DU145 cells, 96 h treatment
Method: as §2

JAK2 V617F = biological target: T4, JAK2 V617F (Homo sapiens, UniProt O60674, V617F); assay: In vitro kinase activity assay (PKLight), JAK2 V617F mutant; format: biochemical; settings: recombinant JAK2 V617F mutant, poly(Glu,Ala,Tyr) substrate, 0.2 μM ATP
T4 construct: purchased Invitrogen PV4347
Method: as §1

T3 sequence (O60674 whole entry): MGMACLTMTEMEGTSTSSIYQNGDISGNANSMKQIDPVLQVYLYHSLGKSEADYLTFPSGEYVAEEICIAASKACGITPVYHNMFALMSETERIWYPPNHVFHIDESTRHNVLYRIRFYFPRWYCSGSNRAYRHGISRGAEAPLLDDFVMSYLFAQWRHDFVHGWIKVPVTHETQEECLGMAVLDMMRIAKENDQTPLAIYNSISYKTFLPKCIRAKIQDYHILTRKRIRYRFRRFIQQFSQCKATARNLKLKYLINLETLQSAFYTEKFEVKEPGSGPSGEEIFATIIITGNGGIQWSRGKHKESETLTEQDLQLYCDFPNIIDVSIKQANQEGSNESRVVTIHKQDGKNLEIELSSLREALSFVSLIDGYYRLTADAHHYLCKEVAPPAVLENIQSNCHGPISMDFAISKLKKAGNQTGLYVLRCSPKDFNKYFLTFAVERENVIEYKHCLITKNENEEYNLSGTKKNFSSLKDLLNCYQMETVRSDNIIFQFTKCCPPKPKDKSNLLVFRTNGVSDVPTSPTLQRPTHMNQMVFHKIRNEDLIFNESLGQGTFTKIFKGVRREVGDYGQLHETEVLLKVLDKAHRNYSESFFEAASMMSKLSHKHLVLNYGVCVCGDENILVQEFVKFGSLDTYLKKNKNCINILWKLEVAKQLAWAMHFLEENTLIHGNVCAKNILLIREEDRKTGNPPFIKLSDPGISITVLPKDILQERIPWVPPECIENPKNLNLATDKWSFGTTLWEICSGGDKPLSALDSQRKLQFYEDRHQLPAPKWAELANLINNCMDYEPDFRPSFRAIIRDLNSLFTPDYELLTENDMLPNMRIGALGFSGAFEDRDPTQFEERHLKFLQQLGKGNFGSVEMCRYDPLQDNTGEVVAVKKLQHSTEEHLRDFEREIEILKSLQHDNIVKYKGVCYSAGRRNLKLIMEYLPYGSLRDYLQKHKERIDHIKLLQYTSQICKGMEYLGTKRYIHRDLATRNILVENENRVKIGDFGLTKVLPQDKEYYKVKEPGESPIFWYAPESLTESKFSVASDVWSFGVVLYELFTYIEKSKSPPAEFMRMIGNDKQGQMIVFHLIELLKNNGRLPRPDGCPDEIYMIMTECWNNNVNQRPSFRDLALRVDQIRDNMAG
T4 sequence (O60674 whole entry V617F): as the sequence (O60674 whole entry) above, with V617F counted along it

| SMILES | IC50 (CDK2/CyclinA) [µM] | IC50 (FLT3) [µM] | IC50 (JAK2) [µM] | GI50 [1] [µM] | GI50 [2] [µM] | GI50 [3] [µM] | GI50 [4] [µM] | GI50 [5] [µM] | IC50 (JAK2 V617F) [µM] |
| --- | --- | --- | --- | --- | --- | --- | --- | --- | --- |
| O=C1CC/C=C/COCc2cccc(c2)Nc2nccc(n2)-c2cccc(c2)N1 [Compound 4] | 1 to 5 | > 5 | > 5 | > 5 | > 5 | > 5 | 1 to 5 | > 5 |  |
| CN1C/C=C/CCOc2cccc(c2)-c2ccnc(n2)Nc2ccc(OCCN3CCOCC3)c(c2)C1 [Compound 13] | ≤ 1 | ≤ 1 | ≤ 1 | ≤ 1 | ≤ 1 |  | > 5 |  |  |
| CN1C/C=C/CC(=O)Nc2cccc(c2)-c2ccnc(n2)Nc2cccc(c2)C1 [Compound 14] | 1 to 5 | 1 to 5 | > 5 | > 5 | > 5 | > 5 | 1 to 5 |  |  |
| CN1Cc2cccc(c2)Nc2nccc(n2)-c2cccc(c2)OCCC2CC2C1 (centres unmarked) [Compound 20] | ≤ 1 | ≤ 1 | ≤ 1 | ≤ 1 | ≤ 1 |  |  |  | ≤ 1 |
| C1=C/CNCc2cccc(c2)Nc2nccc(n2)-c2cccc(c2)OCC/1 [Compound 22] | ≤ 1 | ≤ 1 |  |  |  |  |  |  |  |
| C1=C/CN(C2CC2)Cc2cccc(c2)Nc2nccc(n2)-c2cccc(c2)OCC/1 [Compound 25] | ≤ 1 | ≤ 1 | ≤ 1 |  |  |  |  |  |  |
| Cc1cnc2nc1-c1cccc(c1)OCC/C=C/CN(C)Cc1cccc(c1)N2 [Compound 27] | ≤ 1 | ≤ 1 | ≤ 1 | ≤ 1 | 1 to 5 | ≤ 1 | ≤ 1 | 1 to 5 |  |
| C1=C\CNCc2cccc(c2)Nc2nccc(n2)-c2cccc(c2)OCC/1 [Compound 29] | ≤ 1 | ≤ 1 |  |  |  |  |  |  |  |
| CN1C/C=C/CCOc2cc(F)cc(c2)-c2ccnc(n2)Nc2cccc(c2)C1 [Compound 35] | ≤ 1 | ≤ 1 | ≤ 1 | ≤ 1 | ≤ 1 | ≤ 1 | ≤ 1 | ≤ 1 |  |
